Literature values, collected in patent US6130248A, “Tricarboxylic acid-containing oxyalkyl esters and uses thereof” (Bar-ILAn University, priority 1996, dated 2000).

System: colon carcinoma, leukemia and retinoblastoma cell lines
Conditions: in vitro; cited from earlier work

For `CCCC(=O)[O-].[Na+]` [SB, sodium butyrate], the apoptosis is given as “produce apoptosis”.
